According to US6956040B2, “Oxazolidinone piperazinyl derivatives as potential antimicrobials” (Ranbaxy Laboratories Limited, priority 2001, dated 2005):
In brackets after ≈: the same amount, converted by molar mass.

Legend:
S. pyogenes 19615 = assay: MIC, agar incorporation method; assay type: cell-based, Streptococcus pyogenes; details: S. pyogenes 19615; agar incorporation
Source text: (§1) The compounds of the invention display antibacterial activity when tested by the agar incorporation method. The following minimum inhibitory concentrations (μg/ml) were obtained for representative compounds of the invention which are given below in the following tables.
(§2) • 1) S.aureus ATCC 25923—Staphylococus aureus ATCC 25923 • 2) MRSA 15187—Methicillin Resistant Staphylococcus aureus • 3) Ent. faecalis ATCC 29212—Enterococcus faecalis ATCC 29212 • 4) Ent. faecium 6A—Enterococcus faecium 6A Van®, Cipro® • 5) Strep. pne. ATCC 6303—Streptococcus pneumoniae ATCC 6303 • 6) Strep. pyog. ATCC 19615—Streptococcus pyogenes • 7) S. epidermidis—Staphylococcus epidermidis ATCC 12228
(§3) Briefly, the compounds were dissolved in DMSO and doubling dilution of the compounds were incorporated into Meuller Hilton agar before solidification. Inoculum was prepared by suspending 4 to 5 colonies into 5 ml of normal saline solution and adjusting the turbidity to 0.5 Macfarland turbidity standard tables (1.5×10^8 CFU/ml), after appropriate dilutions, 10^4 CFU/spot was transfered into the surface of dried plate and incubated for 18 hours (24 hours for MRSN studies). The concentration showing no growth of the inoculated culture was recorded as the MIC. Appropriate ATCC standard strains were simultaneously tested and result recorded only when the MIC's against standard antibiotics were within the acceptable range.

E. faecalis 29212 = assay: MIC, agar incorporation method; assay type: cell-based, Enterococcus faecalis; details: E. faecalis 29212; agar incorporation
Source text: as §1, §2, §3

S. aureus 25923 = assay: MIC, agar incorporation method; assay type: cell-based, Staphylococcus aureus; details: S. aureus 25923; agar incorporation
Source text: as §1, §2, §3

MRSA 15187 = assay: MIC, agar incorporation method; assay type: cell-based, Staphylococcus aureus; details: MRSA 15187; agar incorporation
Source text: as §1, §2, §3

S. pneum AB 34 = assay: MIC, agar incorporation method; assay type: cell-based, Streptococcus pneumoniae; details: S. pneum AB 34; agar incorporation
Experimental: as §1, §3

S. pneum 6303 = assay: MIC, agar incorporation method; assay type: cell-based, Streptococcus pneumoniae; details: S. pneum 6303; agar incorporation
Source text: as §1, §2, §3

MRSA 33 = assay: MIC, agar incorporation method; assay type: cell-based, Staphylococcus aureus; details: MRSA 33; agar incorporation
Experimental: as §1, §3

MRSA 562 [1] = assay: MIC, agar incorporation method; assay type: cell-based, Staphylococcus aureus; details: MRSA 562; agar incorporation; Table 1
Experimental: as §1, §3

VRE 6A = assay: MIC, agar incorporation method; assay type: cell-based, Enterococcus faecium; details: VRE 6A; agar incorporation
Source text: as §1, §2, §3

MRSA 562 [2] = assay: In vivo activity against MRSA 562 (ED50); parameters: species or system Staphylococcus aureus
G+ve = assay: Summary of in vitro activity (MIC) against G+ve bacteria; assay type: cell-based; details: for MIC50 / MIC90: G+ve, Number 49; for Geometric Mean of in vitro activity (MIC): Gram +ve
Experimental: as §1, §3

S. pneumoniae = assay: Summary of in vitro activity (MIC) against S. pneumoniae; assay type: cell-based, Streptococcus pneumoniae; details: S. pneumoniae; for MIC50 / MIC90: Number 19
Experimental: as §1, §3

S. aureus = assay: Summary of in vitro activity (MIC) against S. aureus; assay type: cell-based, Staphylococcus aureus; details: S. aureus
Experimental: as §1, §3

E. faecalis = assay: Summary of in vitro activity (MIC) against E. faecalis; assay type: cell-based, Enterococcus faecalis; details: E. faecalis
Experimental: as §1, §3

Structure (SMILES) | MIC (S. pyogenes 19615) | MIC (E. faecalis 29212) | MIC (S. aureus 25923) | MIC (MRSA 15187) | MIC (S. pneum AB 34) | MIC (S. pneum 6303) | MIC (MRSA 33) | MIC (MRSA 562 [1]) | MIC (VRE 6A) | also measured
CC(=O)NC[C@H]1CN(c2ccc(N3C[C@@H]4[C@@H](CN(C)Cc5ccc([N+](=O)[O-])s5)[C@@H]4C3)c(F)c2)C(=O)O1 [Compound No. 39, (S)-N-[[3-[3-Fluorol[4-[3-(1α,5α,6α)-6-[N-(5-nitro-2-thienyl-methyl)-N-methyl]aminomethyl]-3-azabicyclo-[3.1.0]hexane]phenyl]-2-oxo-5-oxazolidinyl]methyl]acetamide] | 0.5 µg/mL (≈ 0.966 µM) | 2 µg/mL (≈ 3.86 µM) | 8 µg/mL (≈ 15.5 µM) | 8 µg/mL (≈ 15.5 µM) | 0.5 µg/mL (≈ 0.966 µM) | 0.5 µg/mL (≈ 0.966 µM) | 4 µg/mL (≈ 7.73 µM) | 8 µg/mL (≈ 15.5 µM) | 8 µg/mL (≈ 15.5 µM) | –
CC(=O)NC[C@H]1CN(c2ccc(N3CCN(C(=O)c4ccc(Br)o4)CC3)c(F)c2)C(=O)O1 [Compound No. 04] | 2 µg/mL (≈ 3.93 µM) | 2 µg/mL (≈ 3.93 µM) | 2 µg/mL (≈ 3.93 µM) | 2 µg/mL (≈ 3.93 µM) | 1 µg/mL (≈ 1.96 µM) | 1 µg/mL (≈ 1.96 µM) | 2 µg/mL (≈ 3.93 µM) | – | 1 µg/mL (≈ 1.96 µM) | ED50 (mg/kg body weight) PO (MRSA 562 [2]): >25 mg/kg body weight
CC1(C)S[C@@H]2[C@H](NC(=O)Cc3ccccc3)C(=O)N2[C@H]1C(=O)O [Penicillin G, reference compound] | – | – | – | – | – | – | – | – | – | MIC50 (G+ve): 4 µg/mL (≈ 12 µM); MIC90 (G+ve): 32 µg/mL (≈ 95.7 µM); Geometric Mean of in vitro activity (MIC) (G+ve): 0.76 µg/mL; Geometric Mean of in vitro activity (MIC) (S. pneumoniae): 2.16 µg/mL; MIC50 (S. pneumoniae): 4 µg/mL (≈ 12 µM); MIC90 (S. pneumoniae): 32 µg/mL (≈ 95.7 µM)
CC(=O)NC[C@H]1CN(c2ccc(N3CCN(Cc4ccc(C=O)o4)CC3)c(F)c2)C(=O)O1 [Compound No. 02, (S)-N-[[3-[3-Fluoro-4-[N-1[4-{2-furyl(5-formyl)methyl}]piperazinyl]phenyl]-2-oxo-5-oxazolidinyl]methyl]acetamide] | 8 µg/mL (≈ 18 µM) | 8 µg/mL (≈ 18 µM) | 1 µg/mL (≈ 2.25 µM) | 2 µg/mL (≈ 4.5 µM) | 8 µg/mL (≈ 18 µM) | 4 µg/mL (≈ 9 µM) | 2 µg/mL (≈ 4.5 µM) | 1 µg/mL (≈ 2.25 µM) | 8 µg/mL (≈ 18 µM) | –
CC(=O)NC[C@H]1CN(c2ccc(N3CCN(Cc4cc(Br)cs4)CC3)c(F)c2)C(=O)O1 [Compound No. 14, (S)-N-[[3-[3-Fluoro-4-[N-1[4-{2-thienyl(4-bromo)methyl}]-piperazinyl]phenyl]-2-oxo-5-oxazolidinyl]methyl]acetamide] | 2 µg/mL (≈ 3.91 µM) | 2 µg/mL (≈ 3.91 µM) | 4 µg/mL (≈ 7.82 µM) | 2 µg/mL (≈ 3.91 µM) | 4 µg/mL (≈ 7.82 µM) | 4 µg/mL (≈ 7.82 µM) | 2 µg/mL (≈ 3.91 µM) | 2 µg/mL (≈ 3.91 µM) | 2 µg/mL (≈ 3.91 µM) | –
CC(=O)NC[C@H]1CN(c2ccc(N3CC4C(CN(C)Cc5ccc([N+](=O)[O-])o5)C4C3)c(F)c2)C(=O)O1 (stereo partly drawn) [Compound No. 40, (S)-N-[[3-[3-Fluoro[4-[3-(1α,5α,6α)-6-[N-(5-nitro-2-furylmethyl)-N-methyl]aminomethyl]-3-azabicyclo-[3.1.0]hexane]phenyl]-2-oxo-5-oxazolidinyl]methyl]acetamide] | 0.125 µg/mL (≈ 0.249 µM) | 2 µg/mL (≈ 3.99 µM) | 2 µg/mL (≈ 3.99 µM) | 2 µg/mL (≈ 3.99 µM) | 2 µg/mL (≈ 3.99 µM) | – | 2 µg/mL (≈ 3.99 µM) | 1 µg/mL (≈ 1.99 µM) | 4 µg/mL (≈ 7.98 µM) | MIC50 (G+ve): 1 µg/mL (≈ 1.99 µM); MIC90 (G+ve): 2 µg/mL (≈ 3.99 µM); Geometric Mean of in vitro activity (MIC) (G+ve): 0.93 µg/mL; Geometric Mean of in vitro activity (MIC) (S. pneumoniae): 0.71 µg/mL; MIC50 (S. pneumoniae): 1 µg/mL (≈ 1.99 µM); MIC90 (S. pneumoniae): 1 µg/mL (≈ 1.99 µM); Geometric Mean of in vitro activity (MIC) (S. aureus): 1.83 µg/mL; MIC50 (S. aureus; Number 8): 2 µg/mL (≈ 3.99 µM); MIC90 (S. aureus; Number 8): 4 µg/mL (≈ 7.98 µM); Geometric Mean of in vitro activity (MIC) (E. faecalis): 2.38 µg/mL; MIC50 (E. faecalis; Number 7): 2 µg/mL (≈ 3.99 µM); MIC90 (E. faecalis; Number 7): 4 µg/mL (≈ 7.98 µM)
CC(=O)NC[C@H]1CN(c2ccc(N3CCN(Cc4cccs4)CC3)c(F)c2)C(=O)O1 [Compound No. 12, (S)-N-[[3-[3-Fluoro-4-[N-1[4-(2-thienylmethyl)]piperazinyl]-phenyl]-2-oxo-5-oxazolidinyl]methyl]acetamide] | 4 µg/mL (≈ 9.25 µM) | 8 µg/mL (≈ 18.5 µM) | 8 µg/mL (≈ 18.5 µM) | 8 µg/mL (≈ 18.5 µM) | 8 µg/mL (≈ 18.5 µM) | 8 µg/mL (≈ 18.5 µM) | 8 µg/mL (≈ 18.5 µM) | 8 µg/mL (≈ 18.5 µM) | 8 µg/mL (≈ 18.5 µM) | –
